The values that follow come from patent publication US20260209249A1, “NOVEL TRICYCLIC COMPOUND AS KRAS G12D INHIBITOR, AND USE THEREOF” (SK Biopharmaceuticals Co., priority 2022, published 2026).

The target of test [1] is T1, GDP-KRAS G12D mutant protein (Homo sapiens, UniProt P01116, G12D).
T1 construct: purchased Daegu Gyeongbuk Medical Innovation Foundation (DGMIF), made to order
Briefly: Differential scanning fluorimetry (DSF) binding affinity to GDP-KRAS G12D mutant protein. Particulars: DSF thermal shift, 10 μM compound, 4 μg KRAS protein. The procedure, abridged:
(§1)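 Thermal shift ΔTm was measured at 10 μM compound over a 25–99 °C ramp (0.05 °C/s), read at 580 nm ex/623 nm em with SYPRO Orange (2×). The protein (4 μg) was preincubated with compound for 30 min at room temperature, in 50 mM HEPES pH 7.5 for GppNHp-KRAS G12D or in kit buffer for GDP-KRAS G12D.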
(In DSF a fluorescence change marks the thermal transition of the protein.)

The target in test [2] is T2, GppNHp-KRAS G12D mutant protein (Homo sapiens, UniProt P01116, G12D).
T2 construct: purchased Daegu Gyeongbuk Medical Innovation Foundation (DGMIF), made to order
Kind of test: Differential scanning fluorimetry (DSF) binding affinity to GppNHp-KRAS G12D mutant protein. Conditions: DSF thermal shift, 10 μM compound, 4 μg KRAS protein, 50 mM HEPES (pH 7.5). The procedure, abridged:
as §1

Test [3] concerns ERK phosphorylation (pERK) induced by KRAS G12D mutation. Briefly: Inhibitory activity against ERK phosphorylation (pERK) induced by KRAS G12D mutation, immunofluorescence assay in AsPC-1 cells. Particulars: Homo sapiens, ASPC1, 3 h drug treatment, pERK (Thr202/Tyr204) signal normalized to DAPI. Type of test: cell-based. The text has this:
Test Example 2: Measurement of Inhibitory Activity Against ERK Phosphorylation (pERK) Induced by KRAS G12D Mutation (Immunofluorescence Assay)
Immunofluorescence is a method used to detect specific substances within cells or tissues through antigen-antibody interactions, and allows for the identification of the presence or absence of specific proteins by using antibodies labeled with various fluorescent dyes. After a primary antibody that recognizes a specific protein selectively binds to the epitope, a fluorescent antibody (secondary antibody) is bound to the primary antibody.
It was confirmed as follows that the compounds according to an embodiment of the present application inhibit phosphorylation of extracellular signal-regulated kinases (Phospho-ERK, pERK) induced by KRAS G12D mutation.
AsPC-1 cells were seeded at a density of 10,000 cells/well in RPMI-1640 medium containing 10% FBS and 1% Penicillin-Streptomycin in 384-well plates (Perkinelmer, #6057300) and allowed to attach for 16 h. After the cells attached to the plate, the cells were treated with drugs at a maximum concentration of 10 μM with a 3-fold serial dilution. After 3 h of drug treatment, the medium was removed and the cells were treated with 50 μL of 4% formaldehyde (Biosesang, #PC2031-050-00) for 20 min and washed three times with 50 μL of phosphate buffered saline (PBS).
50 μL of PBS containing 0.3% Triton X-100 (Sigma, #T8787-250 mL) was added and reacted for 20 minutes to allow antibody penetration into cells, and then the plate was washed three times with 50 μL of PBS. To block nonspecific binding of antibodies to the plate, 50 μL of PBS containing 2% BSA (sigma, #A7906-500G) and 0.01% Tween-20 (Sigma, #P1379-500 mL) (hereinafter referred to as PBS-T) was added, and reacted at room temperature for 2 hours.
To detect pERK, the primary antibody (cell signaling, #9101) was diluted 1:500 in PBS-T containing 2% BSA, 50 μL was added, and the plate was stored in a refrigerator at 4° C. for 16 hours to react, followed by washing three times with 50 μL of PBS-T. To visualize the primary antibody, the secondary antibody, i.e., anti-rabbit-Alexa Fluor 488 (ThermoFisher, #A11008), was diluted 1:1000 in PBS-T containing 2% BSA, 50 μL was added, and after reaction at room temperature for 1 hour, the plate was washed three times with 50 μL of PBS-T. Next, to visualize the nuclei of cells, DAPI (Thermofisher, #62248, 1 mg/mL) was diluted 1:1000 in PBS-T, 50 μL each was added, reacted at room temperature for 10 minutes, and washed three times with 50 μL of PBS-T. 50 μL of PBS-T was added to each well, and the plate was read for fluorescence value using HCS equipment (MOLECULAR DEVICES/ImageXpress Micro).
Data analysis was performed by normalizing the pERK (Thr202/Tyr204) signal to the DAPI signal and calculating the percentage relative to the DMSO as a control. The IC50 value was determined by fitting a four-parameter dose-response curve using the GraphPad Prism software (version 8.4.3), and interpolating the concentration at which 50% inhibition occurred. The results of calculating the inhibitory efficacy of the compounds according to one embodiment of the present application against KRAS G12D mutation-induced pERK activity are shown in Table 3.

Test [4] has as its system KRAS G12D mutant pancreatic cancer cell line AsPC-1. Kind of test: Cell viability assay using KRAS G12D mutant cells (AsPC-1, 3D culture, celltiter-glo 3D). The test is classed as cell-based. Conditions: Homo sapiens, ASPC1, 5th day after compound treatment. The procedure:
Test Example 3: Cell Viability Assay Using KRAS G12D Mutant Cells
The KRAS G12D mutant pancreatic cancer cell line AsPC-1 was obtained from the Korean Cell Line Bank (KCLB) and maintained in 100-mm dishes or T75 (75 cm^2) flasks using RPM11640+10% fetal bovine serum (FBS)+1% Penicillin-Streptomycin medium. The cells were cultured at 37° C. with 5% CO2. The number of viable cells was counted using Countess (Invitrogen).
When AsPC-1 cells reached 85-100% confluence in the flask, the cells were harvested using 1× trypsin/EDTA solution, and seeded into a 96-well plate for 3D culture at 1000 cells/100 μL/well. The next day, the compounds were diluted ⅕ with DMSO from 10 μM or 50 μM to 0.0001 μM or 0.0006 μM and treated 1:1 (v/v) in the plate where the cells were seeded.
Cell culture was terminated on the 5th day after compound treatment, and cell viability at each concentration was measured using the celltiter-glo 3D cell viability assay kit.
Cell viability assays were normalized to 100% for the DMSO-treated group and expressed as a percentage of the number of viable cells when treated with the compound.
Cell viability %=(average RLU of group treated with test substance−average RLU of untreated group)/(average RLU of group treated with DMSO−average RLU of untreated group)×100
The data were modeled using GraphPad Prism 9 (GraphPad Software) by applying a nonlinear regression curve fit with a four-parameter sigmoidal dose-response curve to determine cell viability as a function of compound concentration. The 50% inhibitory concentration (IC50) corresponds to the concentration at which the curve intersects the midpoint of cell viability. The results of the inhibitory effect of the compounds according to one embodiment of the present application on the viability of KRAS G12D mutant cells are presented in Table 4.

On to `CCc1c(F)ccc2cc(O)cc(-c3cc4nc(OC[C@@]56CCCN5C[C@H](F)C6)nc(N5C[C@H]6CC[C@@H](C5)N6)c4n4ccnc34)c12` [Example 1, 4-(1-((1 R,5S)-3,8-diazabicyclo[3.2.1]octan-3-yl)-3-(((2R,7aS)-2-fluorotetrahydro-1H-pyrrolizin-7a(5H)-yl)methoxy)imidazo[1′,2′:1,6]pyrido[3,2-d]pyrimidin-6-yl)-5-ethyl-6-fluoronaphthalen-2-ol], for which the “GDP-KRAS G12D (ΔTmD, ° C.)” value in test [1] was found to be 10.05 °C. Further, the “GppNHp-KRAS G12D (ΔTmD, ° C.)” value in test [2] turned out to be 4.27 °C. Moreover, the IC50 (in general, the concentration needed to halve the response being measured) in test [3] turned out to be 0.322 µM; in test [4] it was 0.364 µM.
Turning to `C#Cc1c(F)ccc2cc(O)cc(-c3cc4nc(OC[C@@]56CCCN5C[C@H](F)C6)nc(N5C[C@H]6CC[C@@H](C5)N6)c4n4ccnc34)c12` [Example 2, 4-(1-((1 R,5S)-3,8-diazabicyclo[3.2.1]octan-3-yl)-3-(((2R,7aS)-2-fluorotetrahydro-1H-pyrrolizin-7a(5H)-yl)methoxy)imidazo[1′,2′:1,6]pyrido[3,2-d]pyrimidin-6-yl)-5-ethynyl-6-fluoronaphthalen-2-ol], in test [1], the “GDP-KRAS G12D (ΔTmD, ° C.)” value was determined as 9.91 °C. For the same molecule, the “GppNHp-KRAS G12D (ΔTmD, ° C.)” value in test [2] is 5.61 °C. Further, the results for the IC50 in test [3] and in test [4] were 0.169 µM and 0.226 µM, respectively.
For `C#Cc1c(F)ccc2cc(O)cc(-c3cc4nc(OCC5(CN6CCOCC6)CC5)nc(N5C[C@H]6CC[C@@H](C5)N6)c4n4ccnc34)c12` [Example 7, 4-(1-((1 R,5S)-3,8-diazabicyclo[3.2.1]octan-3-yl)-3-((1-(morpholinomethyl)cyclopropyl)methoxy)imidazo[1′,2′:1,6]pyrido[3,2-d]pyrimidin-6-yl)-5-ethynyl-6-fluoronaphthalen-2-ol] the same measures were 8.57 °C, 3.24 °C, 0.269 µM and 0.109 µM.
In the same order, the values of `C#Cc1c(F)ccc2cc(O)cc(-c3cc4nc(OCC5(CN6CCOC[C@H]6C)CC5)nc(N5C[C@H]6CC[C@@H](C5)N6)c4n4ccnc34)c12` [Example 8, 4-(1-((1 R,5S)-3,8-diazabicyclo[3.2.1]octan-3-yl)-3-((1-(((R)-3-methylmorpholino)methyl)cyclopropyl)methoxy)imidazo[1′,2′:1,6]pyrido[3,2-d]pyrimidin-6-yl)-5-ethynyl-6-fluoronaphthalen-2-ol] are 9.02 °C, 3.39 °C, 0.149 µM and 0.05 µM.
Take `C#Cc1c(F)ccc2cc(O)cc(-c3cc4nc(OCC5(CN6CCC7(CC6)CC7(F)F)CC5)nc(N5C[C@H]6CC[C@@H](C5)N6)c4n4ccnc34)c12` [Example 9, 4-(1-((1R,5S)-3,8-diazabicyclo[3.2.1]octan-3-yl)-3-((1-((1,1-difluoro-6-azaspiro[2.5]octan-6-yl)methyl)cyclopropyl)methoxy)imidazo[1′,2′:1,6]pyrido[3,2-d]pyrimidin-6-yl)-5-ethynyl-6-fluoronaphthalen-2-ol]: the “GDP-KRAS G12D (ΔTmD, ° C.)” value in test [1] came to 8.87 °C. In test [2], the “GppNHp-KRAS G12D (ΔTmD, ° C.)” value came to 3.39 °C. Besides, the IC50 in test [3] is 0.165 µM; in test [4], 0.05 µM.
In the same order, the values of `C#Cc1c(F)ccc2cc(O)cc(-c3cc4nc(OCC5(CN6CCO[C@H](C)C6)CC5)nc(N5C[C@H]6CC[C@@H](C5)N6)c4n4ccnc34)c12` [Example 11, 4-(1-((1R,5S)-3,8-diazabicyclo[3.2.1]octan-3-yl)-3-((1-(((R)-2-methylmorpholino)methyl)cyclopropyl)methoxy)imidazo[1′,2′:1,6]pyrido[3,2-d]pyrimidin-6-yl)-5-ethynyl-6-fluoronaphthalen-2-ol] are 9.74 °C, 2.49 °C, 0.174 µM and 0.14 µM.
